Article PMC3195835 (International journal of pharmaceutics, 2011)
One block for each compound: values may come before it.

Key:
[1] = ref Allen et al., 2000, Zhanel and Noreddin, 2001, cited from earlier work
[2] = tested on: MDCKII-MDR1 cells; test: ATP assay in MDCKII-MDR1 cells; assay type: cell-based, canine; conditions: 150min
[3] = tested on: MDCKII-MRP2 cells; test: ATP assay in MDCKII-MRP2 cells; assay type: cell-based, canine; conditions: 150min
[4] = tested on: MDCKII-MDR1 cells; test: Cell proliferative; assay type: cell-based, canine; conditions: 150min
[5] = tested on: MDCKII-MRP2 cells; test: Cell proliferative; assay type: cell-based, canine; conditions: 150min
[6] = tested on: LS-180 cells; test: [14C] erythromycin uptake in treated LS-180 cells; assay type: cell-based, human; conditions: LS-180 cells treated 72hrs; gemifloxacin 2.5, 5, 7.5μM, rifampin 10μM
[7] = molecular target: T1, P-gp (Homo sapiens, UniProt P08183); conditions: MDCK-MDR1, 150 min
T1 sequence (P08183 whole entry): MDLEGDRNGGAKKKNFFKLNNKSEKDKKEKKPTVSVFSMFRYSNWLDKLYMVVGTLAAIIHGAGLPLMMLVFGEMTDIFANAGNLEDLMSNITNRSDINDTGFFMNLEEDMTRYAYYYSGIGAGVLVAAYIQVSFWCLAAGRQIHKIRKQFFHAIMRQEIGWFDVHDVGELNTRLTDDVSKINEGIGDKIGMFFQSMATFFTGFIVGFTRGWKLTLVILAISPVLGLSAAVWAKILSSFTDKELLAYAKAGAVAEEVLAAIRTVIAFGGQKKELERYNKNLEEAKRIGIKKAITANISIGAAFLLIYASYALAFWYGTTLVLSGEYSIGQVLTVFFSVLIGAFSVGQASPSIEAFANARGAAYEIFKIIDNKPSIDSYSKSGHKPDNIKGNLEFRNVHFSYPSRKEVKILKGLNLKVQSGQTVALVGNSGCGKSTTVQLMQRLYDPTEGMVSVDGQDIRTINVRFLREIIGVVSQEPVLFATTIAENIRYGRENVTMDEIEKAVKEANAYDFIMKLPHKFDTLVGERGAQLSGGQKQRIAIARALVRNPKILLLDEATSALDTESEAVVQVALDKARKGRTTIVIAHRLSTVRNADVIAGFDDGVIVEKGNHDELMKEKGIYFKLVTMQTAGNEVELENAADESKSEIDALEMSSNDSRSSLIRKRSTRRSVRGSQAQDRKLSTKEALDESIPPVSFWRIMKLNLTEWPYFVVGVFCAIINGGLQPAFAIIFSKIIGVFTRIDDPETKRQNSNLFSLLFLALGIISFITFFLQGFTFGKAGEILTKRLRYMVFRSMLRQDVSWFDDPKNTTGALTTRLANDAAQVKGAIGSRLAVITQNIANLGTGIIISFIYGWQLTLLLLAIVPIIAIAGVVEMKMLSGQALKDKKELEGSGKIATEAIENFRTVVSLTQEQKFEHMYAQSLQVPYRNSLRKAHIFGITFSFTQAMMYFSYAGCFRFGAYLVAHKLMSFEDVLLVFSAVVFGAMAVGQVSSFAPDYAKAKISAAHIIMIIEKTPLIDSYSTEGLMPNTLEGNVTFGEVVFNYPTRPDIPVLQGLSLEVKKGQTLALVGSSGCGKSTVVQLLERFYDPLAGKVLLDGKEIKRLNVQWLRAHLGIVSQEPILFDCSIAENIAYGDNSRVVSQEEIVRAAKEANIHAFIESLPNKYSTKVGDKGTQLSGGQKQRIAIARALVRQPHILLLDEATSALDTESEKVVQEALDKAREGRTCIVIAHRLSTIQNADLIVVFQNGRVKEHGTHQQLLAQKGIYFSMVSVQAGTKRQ

[8] = molecular target: T1, P-gp; test: cell-based
[9] = molecular target: T2, MRP2 (Homo sapiens, UniProt Q92887); test: cell-based
T2 sequence (Q92887 whole entry): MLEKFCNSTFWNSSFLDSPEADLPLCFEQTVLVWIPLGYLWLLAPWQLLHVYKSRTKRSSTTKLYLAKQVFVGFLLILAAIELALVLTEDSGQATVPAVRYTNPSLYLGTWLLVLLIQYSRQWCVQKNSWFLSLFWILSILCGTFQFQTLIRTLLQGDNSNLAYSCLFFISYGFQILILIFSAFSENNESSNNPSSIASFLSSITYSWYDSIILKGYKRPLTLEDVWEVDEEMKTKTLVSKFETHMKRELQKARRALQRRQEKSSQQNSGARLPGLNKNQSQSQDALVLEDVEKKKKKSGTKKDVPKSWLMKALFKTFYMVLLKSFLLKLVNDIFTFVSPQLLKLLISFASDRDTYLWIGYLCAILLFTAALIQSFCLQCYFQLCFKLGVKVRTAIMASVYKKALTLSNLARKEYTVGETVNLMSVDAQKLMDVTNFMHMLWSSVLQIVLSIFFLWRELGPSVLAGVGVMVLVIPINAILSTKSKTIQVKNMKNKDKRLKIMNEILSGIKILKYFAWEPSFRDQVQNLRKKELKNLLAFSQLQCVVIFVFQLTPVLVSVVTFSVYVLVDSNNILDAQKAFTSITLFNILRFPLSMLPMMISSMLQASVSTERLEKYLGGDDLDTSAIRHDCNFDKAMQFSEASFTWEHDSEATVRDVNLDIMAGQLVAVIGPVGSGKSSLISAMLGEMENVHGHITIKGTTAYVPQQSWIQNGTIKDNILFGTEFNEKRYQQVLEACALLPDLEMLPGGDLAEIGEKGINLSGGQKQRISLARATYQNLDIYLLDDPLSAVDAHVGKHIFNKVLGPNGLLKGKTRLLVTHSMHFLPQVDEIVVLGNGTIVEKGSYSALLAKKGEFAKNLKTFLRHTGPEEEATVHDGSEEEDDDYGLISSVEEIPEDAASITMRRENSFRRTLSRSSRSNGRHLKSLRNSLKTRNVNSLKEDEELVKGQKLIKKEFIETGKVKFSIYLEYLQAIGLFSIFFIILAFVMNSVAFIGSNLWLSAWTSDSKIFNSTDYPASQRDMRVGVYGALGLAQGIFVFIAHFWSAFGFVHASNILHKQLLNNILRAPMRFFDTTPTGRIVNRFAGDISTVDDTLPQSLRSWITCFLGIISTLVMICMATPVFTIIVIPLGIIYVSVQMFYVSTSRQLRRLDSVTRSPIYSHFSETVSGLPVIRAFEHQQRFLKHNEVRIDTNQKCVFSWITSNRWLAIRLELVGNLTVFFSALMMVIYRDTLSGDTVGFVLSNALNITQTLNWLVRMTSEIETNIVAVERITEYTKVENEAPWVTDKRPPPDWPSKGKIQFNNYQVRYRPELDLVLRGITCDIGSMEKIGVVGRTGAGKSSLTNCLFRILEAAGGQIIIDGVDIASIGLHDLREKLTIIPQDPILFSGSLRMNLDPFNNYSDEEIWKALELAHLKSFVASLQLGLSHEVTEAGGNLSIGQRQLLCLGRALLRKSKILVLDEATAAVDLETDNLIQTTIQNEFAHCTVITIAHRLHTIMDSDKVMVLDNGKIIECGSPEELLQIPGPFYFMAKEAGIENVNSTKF

[10] = molecular target: T1, P-gp; test: Cellular accumulation of calcein-AM in MDCKII-MDR1 cells; assay type: cell-based; conditions: calcein-AM 0.05μM, 15min, quinidine 100μM, gemifloxacin 250μM
[11] = molecular target: T1, P-gp; test: in vitro; conditions: MDCK-MDR1
[12] = molecular target: T2, MRP2; test: in vitro
[13] = all concentrations 1μM to 1000μM except 1000μM
[14] = gemifloxacin 1000μM, data not shown
[15] = all other concentrations (1μM to below 1000μM)

SMILES: COc1c(N2CCNC(C)C2)c(F)cc2c(=O)c(C(=O)O)cn(C3CC3)c12 (stereo not drawn) [gatifloxacin]
Absolute (oral) bioavailability [1]: 96%

Apparent permeability of [14C] erythromycin, AP-BL, in presence of test compound [7]: 5.24 ± 0.52 × 10-6 cm/sec
Apparent permeability of [14C] erythromycin, BL-AP, in presence of test compound [7]: 7.38 ± 0.72 × 10-6 cm/sec
IC50 [8]: 123 ± 2 µM
IC50 [9]: 16 ± 2 µM
SMILES: CO/N=C1\CN(c2nc3c(cc2F)c(=O)c(C(=O)O)cn3C2CC2)CC1CN (stereo not drawn) [gemifloxacin]
Effect on ATP levels compared to control [2, 13]: did not significantly alter ATP levels
Increase in ATP level [2, 14]: ~15%
Effect on ATP levels compared to control [3, 13]: did not significantly alter ATP levels
Increase in ATP level [3, 14]: ~10%
Cytotoxicity (MTS) [4, 15]: non-cytotoxic
Decrease in cell viability (MTS) [4, 14]: ~25%
Cytotoxicity (MTS) [5, 15]: non-cytotoxic
Decrease in cell viability (MTS) [5, 14]: ~20%
Decrease in cellular accumulation of [14C] erythromycin post treatment [6]: ~20%
Time to peak concentration ([1]; oral administration): 0.5 to 2 h
Absolute (oral) bioavailability [1]: 71%

Increase in intracellular calcein fluorescence [10]: doubled
SMILES: C=C[C@H]1C[N@@]2CC[C@H]1C[C@@H]2[C@@H](O)c1ccnc2ccc(OC)cc12 [quinidine]

Papp A→B at 150 min [11]: 2.96 ± 0.37 ×10⁻⁶ cm/s
Papp B→A at 150 min [11]: 10.6 ± 0.86 ×10⁻⁶ cm/s
efflux ratio at 150 min [11]: 3.56
Papp A→B at 150 min [12]: 3.76 ± 1.37 ×10⁻⁶ cm/s
Papp B→A at 150 min [12]: 18.5 ± 1.94 ×10⁻⁶ cm/s
efflux ratio at 150 min [12]: 4.93
SMILES: CC[C@H]1OC(=O)[C@H](C)[C@@H](O[C@H]2C[C@@](C)(OC)[C@@H](O)[C@H](C)O2)[C@H](C)[C@@H](O[C@@H]2O[C@H](C)C[C@H](N(C)C)[C@H]2O)[C@](C)(O)C[C@@H](C)C(=O)[C@H](C)[C@@H](O)[C@]1(C)O [[^14C] erythromycin, erythromycin]

SMILES: CO[C@H]1/C=C/O[C@@]2(C)Oc3c(C)c(O)c4c(O)c(c(/C=N/N5CCN(C)CC5)c(O)c4c3C2=O)NC(=O)/C(C)=C\C=C\[C@H](C)[C@H](O)[C@@H](C)[C@@H](O)[C@@H](C)[C@H](OC(C)=O)[C@@H]1C [rifampin]
Decrease in cellular accumulation of [14C] erythromycin post treatment [6]: ~20%
